Data as given in US12539292B2, “BRM targeting compounds and associated methods of use” (Arvinas Operations, Inc., priority 2018, dated 2026).
Like-named read-outs stand apart in the source and are kept apart here. Each block holds one compound with its values, some of them ahead of it.

Target: T1, BRM (Homo sapiens, UniProt P51531)
T1 construct: In-Cell Western Screen of BRM Degradation in SW1573 Cells; endogenous in cells; host or cells: SW1573
Assay: In-cell Western screen of BRM degradation in SW1573 cells (Dmax and DC50)
Format: cell-based
Outline: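 Adherent SW1573 cultures exposed to test compounds for 18-20 h were processed for in-cell Western after PFA fixation and detergent permeabilization. BRM degradation was reported as Dmax and DC50.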

[1] = BRM degradation, SW1573 cells, read-out: DC50
[2] = BRM degradation, SW1573 cells, when tested at the top concentration of between 0.3 and 10 μM, read-out: Dmax (%) (% degraded)
[3] = BRM degradation, SW1573 cells, tested at the top concentration of between 0.3 and 10 μM, read-out: Dmax (%) (% degraded)
[4] = SW1573, % degraded, when tested at the top concentration of between 0.3 and 10 μM, read-out: BRM Dmax (%)
[5] = target protein degradation, read-out: BRM DC50

T1 sequence (P51531 whole entry): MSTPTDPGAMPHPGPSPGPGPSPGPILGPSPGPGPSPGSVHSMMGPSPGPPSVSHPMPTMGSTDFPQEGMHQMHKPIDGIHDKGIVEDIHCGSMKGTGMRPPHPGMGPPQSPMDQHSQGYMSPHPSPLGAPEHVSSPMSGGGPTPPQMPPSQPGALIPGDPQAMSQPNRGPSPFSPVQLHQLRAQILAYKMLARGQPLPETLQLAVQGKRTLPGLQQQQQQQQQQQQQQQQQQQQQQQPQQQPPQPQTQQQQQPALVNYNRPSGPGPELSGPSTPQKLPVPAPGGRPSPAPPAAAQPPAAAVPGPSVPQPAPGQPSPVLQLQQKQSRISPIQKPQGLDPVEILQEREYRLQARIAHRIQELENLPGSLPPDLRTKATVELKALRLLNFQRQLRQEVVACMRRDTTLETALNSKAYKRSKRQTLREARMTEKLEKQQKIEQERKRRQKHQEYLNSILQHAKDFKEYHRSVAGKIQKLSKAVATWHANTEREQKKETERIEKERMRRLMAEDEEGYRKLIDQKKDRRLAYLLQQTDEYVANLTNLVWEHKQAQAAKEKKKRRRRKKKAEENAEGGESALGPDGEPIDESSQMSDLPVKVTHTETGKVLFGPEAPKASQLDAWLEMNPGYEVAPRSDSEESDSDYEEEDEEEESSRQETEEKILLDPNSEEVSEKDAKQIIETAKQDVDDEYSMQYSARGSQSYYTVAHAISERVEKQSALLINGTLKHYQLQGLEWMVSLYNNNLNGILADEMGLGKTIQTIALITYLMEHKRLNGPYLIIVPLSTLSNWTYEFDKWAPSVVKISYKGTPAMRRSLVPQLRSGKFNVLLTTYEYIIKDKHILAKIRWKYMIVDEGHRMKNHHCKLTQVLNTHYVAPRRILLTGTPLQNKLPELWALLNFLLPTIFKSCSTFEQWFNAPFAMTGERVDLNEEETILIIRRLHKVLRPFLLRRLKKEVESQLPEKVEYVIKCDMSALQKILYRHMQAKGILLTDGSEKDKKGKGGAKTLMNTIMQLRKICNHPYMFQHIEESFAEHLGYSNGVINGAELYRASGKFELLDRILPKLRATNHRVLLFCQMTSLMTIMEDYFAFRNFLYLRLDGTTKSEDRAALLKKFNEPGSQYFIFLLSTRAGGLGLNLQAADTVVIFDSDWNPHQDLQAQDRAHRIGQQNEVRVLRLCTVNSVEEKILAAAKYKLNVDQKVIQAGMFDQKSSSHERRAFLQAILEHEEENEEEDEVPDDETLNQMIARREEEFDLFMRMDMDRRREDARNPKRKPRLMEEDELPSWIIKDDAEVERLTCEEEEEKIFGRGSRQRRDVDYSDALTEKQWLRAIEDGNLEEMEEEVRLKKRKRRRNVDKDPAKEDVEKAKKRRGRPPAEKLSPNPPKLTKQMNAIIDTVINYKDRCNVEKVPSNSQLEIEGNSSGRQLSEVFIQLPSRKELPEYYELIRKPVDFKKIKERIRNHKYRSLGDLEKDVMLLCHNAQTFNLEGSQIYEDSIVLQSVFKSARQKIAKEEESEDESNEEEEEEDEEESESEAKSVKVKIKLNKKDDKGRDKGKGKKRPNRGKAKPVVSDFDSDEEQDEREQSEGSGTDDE

Compound: Cc1ncsc1-c1ccc([C@H](C)NC(=O)[C@@H]2C[C@@H](O)CN2C(=O)[C@@H](c2cc(N3CCN(CCN4CCC(O[C@H]5C[C@H](Oc6cc(N7C8CCC7CN(c7cc(-c9ccccc9O)nnc7N)C8)ccn6)C5)CC4)CC3)no2)C(C)C)cc1 [compound 144, (2S,4R)-1-((2R)-2-(3-(4-(2-(4-((1r,3r)-3-((4-(3-(3-amino-6-(2-hydroxyphenyl)pyridazin-4-yl)-3,8-diazabicyclo[3.2.1]octan-8-yl)pyridin-2-yl)oxy)cyclobutoxy)piperidin-1-yl)ethyl)piperazin-1-yl)isoxazol-5-yl)-3-methylbutanoyl)-4-hydroxy-N-((S)-1-(4-(4-methylthiazol-5-yl)phenyl)ethyl)pyrrolidine-2-carboxamide]
DC50 [1]: < 2.5 nM | Dmax [2]: > 75%

Compound: CC(C)[C@@H](C(=O)N1C[C@H](O)C[C@H]1C(=O)N[C@@H](C)c1ccc(C2CC2(F)F)cc1)c1cc(OCCN2CCC(O[C@H]3C[C@H](Oc4cc(N5C6CCC5CN(c5cc(-c7ccccc7O)nnc5N)C6)ccn4)C3)CC2)no1 (stereo partly drawn) [compound 439, (2S,4R)-1-((2R)-2-(3-(2-(4-((1r,3R)-3-((4-(3-(3-amino-6-(2-hydroxyphenyl)pyridazin-4-yl)-3,8-diazabicyclo[3.2.1]octan-8-yl)pyridin-2-yl)oxy)cyclobutoxy)piperidin-1-yl)ethoxy)isoxazol-5-yl)-3-methylbutanoyl)-N-((1S)-1-(4-(2,2-difluorocyclopropyl)phenyl)ethyl)-4-hydroxypyrrolidine-2-carboxamide]
DC50 (degradation of BRM, read-out: BRM DC50): > 30 nM

DC50 [1]: > 30 nM
Compound: Cc1ncsc1-c1ccc([C@H](CN(C)C)NC(=O)[C@@H]2C[C@@H](O)CN2C(=O)[C@H](c2cc(OCCN3CCN(CCOc4cc(N5C6CCC5CN(c5cc(-c7ccccc7O)nnc5N)C6)ccn4)CC3)no2)C(C)C)cc1 [compound 280, (2S,4R)-1-((2S)-2-(3-(2-(4-(2-((4-(3-(3-amino-6-(2-hydroxyphenyl)pyridazin-4-yl)-3,8-diazabicyclo[3.2.1]octan-8-yl)pyridin-2-yl)oxy)ethyl)piperazin-1-yl)ethoxy)isoxazol-5-yl)-3-methylbutanoyl)-N-((R)-2-(dimethylamino)-1-(4-(4-methylthiazol-5-yl)phenyl)ethyl)-4-hydroxypyrrolidine-2-carboxamide]

Compound: COc1cc(-c2scnc2C)ccc1CNC(=O)[C@@H]1C[C@@H](O)CN1C(=O)[C@@H](c1cc(OCCN2CCC(O[C@H]3C[C@H](Oc4cc(N5C6CCC5CN(c5cc(-c7ccccc7O)nnc5N)C6)ccn4)C3)CC2)no1)C(C)C [compound 215, (2S,4R)-1-((2R)-2-(3-(2-(4-((1r,3R)-3-((4-(3-(3-amino-6-(2-hydroxyphenyl)pyridazin-4-yl)-3,8-diazabicyclo[3.2.1]octan-8-yl)pyridin-2-yl)oxy)cyclobutoxy)piperidin-1-yl)ethoxy)isoxazol-5-yl)-3-methylbutanoyl)-4-hydroxy-N-(2-methoxy-4-(4-methylthiazol-5-yl)benzyl)pyrrolidine-2-carboxamide]
DC50 [1]: < 2.5 nM | Dmax [3]: > 75%

Dmax [4]: > 75% | DC50 [5]: < 2.5 nM
Compound: Cc1ncsc1-c1ccc([C@H](C)NC(=O)[C@@H]2C[C@@H](O)CN2C(=O)[C@H](c2cc(OCCC3CCN(C(=O)[C@H]4C[C@@H](CN5CCC([C@@H](C)n6cc(-c7cc(-c8ccccc8O)nnc7N)cn6)CC5)C4)CC3)no2)C(C)C)cc1 [compound 451, (2S,4R)-1-((S)-2-(3-(2-(1-((1S,3R)-3-((4-((R)-1-(4-(3-amino-6-(2-hydroxyphenyl)pyridazin-4-yl)-1 H-pyrazol-1-yl)ethyl)piperidin-1-yl)methyl)cyclobutane-1-carbonyl)piperidin-4-yl)ethoxy)isoxazol-5-yl)-3-methylbutanoyl)-4-hydroxy-N-((S)-1-(4-(4-methylthiazol-5-yl)phenyl)ethyl)pyrrolidine-2-carboxamide]

Compound: Cc1ncsc1-c1ccc(C2(NC(=O)[C@@H]3C[C@@H](O)CN3C(=O)[C@@H](c3cc(OCCN4CCN(CCOc5cc(N6C7CCC6CN(c6cc(-c8ccccc8O)nnc6N)C7)ccn5)CC4)no3)C(C)C)CN(C)C2)cc1 [compound 126, (2S,4R)-1-((2R)-2-(3-(2-(4-(2-((4-(3-(3-amino-6-(2-hydroxyphenyl)pyridazin-4-yl)-3,8-diazabicyclo[3.2.1]octan-8-yl)pyridin-2-yl)oxy)ethyl)piperazin-1-yl)ethoxy)isoxazol-5-yl)-3-methylbutanoyl)-4-hydroxy-N-(1-methyl-3-(4-(4-methylthiazol-5-yl)phenyl)azetidin-3-yl)pyrrolidine-2-carboxamide]
DC50 [1]: 2.5 to 10 nM | Dmax [2]: > 75%

Compound: Cc1ncsc1-c1ccc([C@H](C)NC(=O)[C@@H]2C[C@@H](O)CN2C(=O)[C@@H](NC(=O)COCCN2CCC(O[C@H]3C[C@H](Oc4cc(N5C6CCC5CN(c5cc(-c7ccccc7O)nnc5N)C6)ccn4)C3)CC2)C(C)(C)C)cc1 [compound 183, (2S,4R)-1-((2S)-2-(2-(2-(4-((1r,3S)-3-((4-(3-(3-amino-6-(2-hydroxyphenyl)pyridazin-4-yl)-3,8-diazabicyclo[3.2.1]octan-8-yl)pyridin-2-yl)oxy)cyclobutoxy)piperidin-1-yl)ethoxy)acetamido)-3,3-dimethylbutanoyl)-4-hydroxy-N-((S)-1-(4-(4-methylthiazol-5-yl)phenyl)ethyl)pyrrolidine-2-carboxamide]
DC50 [1]: < 2.5 nM | Dmax [3]: > 75%

Compound: Cc1ncsc1-c1ccc([C@H](C)NC(=O)[C@@H]2C[C@@H](O)CN2C(=O)C(c2cc(OCCN3[C@H](C)C[C@H](O[C@H]4C[C@H](Oc5cc(N6C7CCC6CN(c6cc(-c8ccccc8O)nnc6N)C7)ccn5)C4)C[C@@H]3C)no2)C(C)C)cn1 (stereo partly drawn) [compound 448, (2S,4R)-1-(2-(3-(2-((2S,4S,6R)-4-((1r,3R)-3-((4-(3-(3-amino-6-(2-hydroxyphenyl)pyridazin-4-yl)-3,8-diazabicyclo[3.2.1]octan-8-yl)pyridin-2-yl)oxy)cyclobutoxy)-2,6-dimethylpiperidin-1-yl)ethoxy)isoxazol-5-yl)-3-methylbutanoyl)-4-hydroxy-N-((S)-1-(6-(4-methylthiazol-5-yl)pyridin-3-yl)ethyl)pyrrolidine-2-carboxamide]
Dmax [4]: > 75% | DC50 [5]: < 2.5 nM

Compound: Cc1ncsc1-c1ccc([C@H](C)NC(=O)[C@@H]2C[C@@H](O)CN2C(=O)[C@@H](c2cc(OCCN3C[C@H]4C[C@@H](O[C@H]5C[C@H](Oc6cc(N7C8CCC7CN(c7cc(-c9ccccc9O)nnc7N)C8)ccn6)C5)C[C@H]4C3)no2)C(C)C)cc1 [compound 360, (2S,4R)-1-((2R)-2-(3-(2-((3aR,5R,6aS)-5-((1r,3R)-3-((4-(3-(3-amino-6-(2-hydroxyphenyl)pyridazin-4-yl)-3,8-diazabicyclo[3.2.1]octan-8-yl)pyridin-2-yl)oxy)cyclobutoxy)hexahydrocyclopenta[c]pyrrol-2(1H)-yl)ethoxy)isoxazol-5-yl)-3-methylbutanoyl)-4-hydroxy-N-((S)-1-(4-(4-methylthiazol-5-yl)phenyl)ethyl)pyrrolidine-2-carboxamide]
Dmax [4]: > 75% | DC50 [5]: < 2.5 nM

Compound: Cc1ncsc1-c1ccc([C@H](CCC#N)NC(=O)[C@@H]2C[C@@H](O)CN2C(=O)[C@H](c2cc(OCCN3CCC(O[C@H]4C[C@H](Oc5cc(N6C7CCC6CN(c6cc(-c8ccccc8O)nnc6N)C7)ccn5)C4)CC3)no2)C(C)C)cc1 [compound 532, (2S,4R)-1-((2S)-2-(3-(2-(4-((1r,3S)-3-((4-(3-(3-amino-6-(2-hydroxyphenyl)pyridazin-4-yl)-3,8-diazabicyclo[3.2.1]octan-8-yl)pyridin-2-yl)oxy)cyclobutoxy)piperidin-1-yl)ethoxy)isoxazol-5-yl)-3-methylbutanoyl)-N-((S)-3-cyano-1-(4-(4-methylthiazol-5-yl)phenyl)propyl)-4-hydroxypyrrolidine-2-carboxamide]
DC50 (BRM degradation, read-out: BRM DC50): > 30 nM

DC50 [1]: > 30 nM
Compound: Cc1ncoc1-c1ccc([C@H](C)NC(=O)[C@@H]2C[C@@H](O)CN2C(=O)[C@H](c2cc(OCCN3CCN(CCOc4cc(N5C6CCC5CN(c5cc(-c7ccccc7O)nnc5N)C6)ccn4)CC3)no2)C(C)C)cc1 [compound 299, (2S,4R)-1-((2S)-2-(3-(2-(4-(2-((4-(3-(3-amino-6-(2-hydroxyphenyl)pyridazin-4-yl)-3,8-diazabicyclo[3.2.1]octan-8-yl)pyridin-2-yl)oxy)ethyl)piperazin-1-yl)ethoxy)isoxazol-5-yl)-3-methylbutanoyl)-4-hydroxy-N-((S)-1-(4-(4-methyloxazol-5-yl)phenyl)ethyl)pyrrolidine-2-carboxamide]

Compound: CCOC[C@H](NC(=O)[C@@H]1C[C@@H](O)CN1C(=O)[C@H](c1cc(OCCN2CCN(CCOc3cc(N4C5CCC4CN(c4cc(-c6ccccc6O)nnc4N)C5)ccn3)CC2)no1)C(C)C)c1ccc(-c2scnc2C)cc1 [compound 257, (2S,4R)-1-((2S)-2-(3-(2-(4-(2-((4-(3-(3-amino-6-(2-hydroxyphenyl)pyridazin-4-yl)-3,8-diazabicyclo[3.2.1]octan-8-yl)pyridin-2-yl)oxy)ethyl)piperazin-1-yl)ethoxy)isoxazol-5-yl)-3-methylbutanoyl)-N-((R)-2-ethoxy-1-(4-(4-methylthiazol-5-yl)phenyl)ethyl)-4-hydroxypyrrolidine-2-carboxamide]
DC50 [1]: 2.5 to 10 nM | Dmax [3]: > 75%
